Laboratory results published in patent EP4778922A1, “BICYCLIC COMPOUND, AND PREPARATION METHOD THEREFOR AND PHARMACEUTICAL USE THEREOF” (Shanghai Jeyou Pharmaceutical Co., Ltd., priority 2023, dated 2025).
Like-named read-outs stand apart in the source and are kept apart here.

Key:
LNCaP cells = test: Cell proliferation inhibition assay in LNCaP cells (0.2 nM DHT, CellTiter-Glo, 7 days); type: cell-based, human; details: Homo sapiens, LNCaP, 168 h
Summary of the method: (§1)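 22RV1 cells received compound alone; LNCaP cells were stimulated with 0.2 nM DHT added 1 h after compound. Seeding was 3000 cells/well.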

CYP2C8 = biological target: T1, CYP2C8 (Homo sapiens, UniProt P10632); test: CYP inhibition assay in human liver microsomes; type: in vitro ADME; details: human liver microsomes, NADPH; read-out: CYPs 2C8 (IC50)
T1 construct: co-incubated with human liver microsomes; from tissue; host or cells: human liver microsomes
T1 sequence (P10632 1-490): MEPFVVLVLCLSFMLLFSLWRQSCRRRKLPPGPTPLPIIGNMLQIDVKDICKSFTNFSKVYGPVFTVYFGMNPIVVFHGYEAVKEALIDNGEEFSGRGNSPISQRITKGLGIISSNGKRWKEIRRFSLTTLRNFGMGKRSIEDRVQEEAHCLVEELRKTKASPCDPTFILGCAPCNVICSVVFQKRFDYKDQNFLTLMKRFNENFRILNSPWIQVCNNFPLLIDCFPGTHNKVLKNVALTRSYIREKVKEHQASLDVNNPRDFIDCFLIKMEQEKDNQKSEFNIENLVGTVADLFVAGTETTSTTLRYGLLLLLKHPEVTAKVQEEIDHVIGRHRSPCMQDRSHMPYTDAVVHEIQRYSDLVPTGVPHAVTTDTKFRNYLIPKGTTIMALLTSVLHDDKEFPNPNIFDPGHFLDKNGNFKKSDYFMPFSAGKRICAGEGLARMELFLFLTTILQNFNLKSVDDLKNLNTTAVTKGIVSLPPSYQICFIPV
Procedure: (§2) Test Example 3: CYP Inhibition Assay
(§3) An in vitro assay system was used to evaluate the effects of the compounds on the activities of several human liver microsomal cytochrome P450 (CYP) isozymes (CYP1A2, CYP2C9, CYP2D6, CYP3A4 (testosterone/midazolam), CYP2C19, and CYP2C8). Specific probe substrates for CYP450 isozymes were co-incubated with human liver microsomes and the compound at various concentrations (0, 0.0300, 0.100, 0.300, 1.00, 3.00, 10.0 µM). The reaction was initiated by adding the coenzyme NADPH. After the reaction was completed, the samples were processed, and the metabolites generated from the probe substrates were detected by liquid chromatography-tandem mass spectrometry (LC-MS/MS). Based on the resulting dose-response curves, the IC50 values of the test compounds for the probe substrate reactions catalyzed by each CYP isozyme were calculated.

CYP2C19 = biological target: T2, CYP2C19 (Homo sapiens, UniProt P33261); test: CYP inhibition assay in human liver microsomes; type: in vitro ADME; details: human liver microsomes, NADPH; read-out: CYPs 2C19 (IC50)
T2 construct: co-incubated with human liver microsomes; from tissue; host or cells: human liver microsomes
Procedure: as §2, §3

CYP2C9 = biological target: T3, CYP2C9 (Homo sapiens, UniProt P11712); test: CYP inhibition assay in human liver microsomes; type: in vitro ADME; details: human liver microsomes, NADPH; read-out: CYPs 2C9 (IC50)
T3 construct: co-incubated with human liver microsomes; from tissue; host or cells: human liver microsomes
Procedure: as §2, §3

[1] = biological target: T4, CYP3A4 (testosterone/midazolam) (Homo sapiens, UniProt P08684); test: CYP inhibition assay in human liver microsomes; type: in vitro ADME
T4 construct: co-incubated with human liver microsomes; from tissue; host or cells: human liver microsomes
Procedure: as §2, §3

22RV1 cells = test: Cell proliferation inhibition assay in 22RV1 cells (CellTiter-Glo, 7 days); type: cell-based, human; details: Homo sapiens, 22Rv1, 168 h
Summary of the method: as §1

[2] = Mouse pharmacokinetic test; type: in vivo, ICR mice; details: plasma; for Tmax: read-out: Tmax; for bioavailability: PO-30mpk vs IV-0.5mpk
Summary of the method: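 Male naive ICR mice (25–30 g, n=3 per route) received a single intravenous or oral dose, with feeding resumed 4 h post-dose. Blood was centrifuged at 4°C, and plasma was stored at -80°C until analysis.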

[3] = probe substrate midazolam, read-out: CYPs 3A4 (Midazolam) (IC50)
[4] = probe substrate testosterone, read-out: CYPs 3A4 (Testosterone) (IC50)

T3 sequence (P11712 whole entry): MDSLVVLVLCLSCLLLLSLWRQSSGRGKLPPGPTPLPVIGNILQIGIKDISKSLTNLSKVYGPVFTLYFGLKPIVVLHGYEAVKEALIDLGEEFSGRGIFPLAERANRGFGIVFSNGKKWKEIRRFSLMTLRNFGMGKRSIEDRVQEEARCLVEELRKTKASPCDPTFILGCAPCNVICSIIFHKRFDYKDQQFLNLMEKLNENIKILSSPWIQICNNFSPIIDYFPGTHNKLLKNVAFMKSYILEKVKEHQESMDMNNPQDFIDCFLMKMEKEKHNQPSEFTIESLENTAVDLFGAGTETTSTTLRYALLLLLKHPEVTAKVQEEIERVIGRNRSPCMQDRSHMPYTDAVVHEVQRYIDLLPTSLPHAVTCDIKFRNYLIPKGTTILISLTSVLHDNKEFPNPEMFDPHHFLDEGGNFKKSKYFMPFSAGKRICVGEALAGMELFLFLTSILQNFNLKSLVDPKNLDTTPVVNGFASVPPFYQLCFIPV
T4 sequence (P08684 whole entry): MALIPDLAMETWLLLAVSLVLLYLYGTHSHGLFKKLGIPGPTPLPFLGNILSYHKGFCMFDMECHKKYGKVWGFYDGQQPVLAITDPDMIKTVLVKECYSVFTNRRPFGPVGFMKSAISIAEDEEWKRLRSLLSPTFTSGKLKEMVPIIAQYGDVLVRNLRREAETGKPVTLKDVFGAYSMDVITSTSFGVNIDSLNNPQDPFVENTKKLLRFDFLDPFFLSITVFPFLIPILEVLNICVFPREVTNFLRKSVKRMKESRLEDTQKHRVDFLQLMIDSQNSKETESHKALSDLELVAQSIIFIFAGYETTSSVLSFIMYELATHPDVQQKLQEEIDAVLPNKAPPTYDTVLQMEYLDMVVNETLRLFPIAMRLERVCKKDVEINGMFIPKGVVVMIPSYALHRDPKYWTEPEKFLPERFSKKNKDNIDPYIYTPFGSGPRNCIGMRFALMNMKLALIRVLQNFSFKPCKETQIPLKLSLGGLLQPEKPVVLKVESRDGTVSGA
T2 sequence (P33261 whole entry): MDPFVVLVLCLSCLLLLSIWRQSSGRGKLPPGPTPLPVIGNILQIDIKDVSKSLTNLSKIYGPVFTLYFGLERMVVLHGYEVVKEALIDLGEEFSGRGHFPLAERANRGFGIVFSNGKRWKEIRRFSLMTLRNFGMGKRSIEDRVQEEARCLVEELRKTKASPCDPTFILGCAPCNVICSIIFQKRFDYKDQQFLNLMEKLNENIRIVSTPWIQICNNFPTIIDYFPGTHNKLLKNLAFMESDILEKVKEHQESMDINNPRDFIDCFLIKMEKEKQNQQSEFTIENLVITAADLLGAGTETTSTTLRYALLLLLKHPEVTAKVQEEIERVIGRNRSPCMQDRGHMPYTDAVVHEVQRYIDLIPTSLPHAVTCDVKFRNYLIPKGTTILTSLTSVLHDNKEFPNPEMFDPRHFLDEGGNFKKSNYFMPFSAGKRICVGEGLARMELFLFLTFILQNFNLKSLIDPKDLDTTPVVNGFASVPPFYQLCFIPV

Row | Structure (SMILES) | IC50 (LNCaP cells) [µM] | IC50 (CYP2C8) [µM] | IC50 (CYP2C19) [µM] | IC50 (CYP2C9) [µM] | IC50 [1, 3] [µM] | IC50 [1, 4] [µM] | IC50 (22RV1 cells) [µM] | AUC(0-inf) ([2]; po, 30 mg/kg, PO-30mpk) [µg·h/mL] | Cmax ([2]; po, 30 mg/kg, PO-30mpk) [ng/mL] | half-life ([2]; po, 30 mg/kg, PO-30mpk) [h] | Tmax ([2]; po, 30 mg/kg, PO-30mpk) [h] | C0 ([2]; 0.5 mg/kg, IV-0.5mpk) [ng/mL] | clearance ([2]; 0.5 mg/kg, IV-0.5mpk) [mL/min/kg] | bioavailability ([2]; 30 mg/kg) [%] | AUC(0-inf) ([2]; iv, 0.5 mg/kg, IV-0.5mpk) [µg·h/mL] | half-life ([2]; iv, 0.5 mg/kg, IV-0.5mpk) [h]
1 | CC(C)(c1ccc(-c2cnc(OCc3ccnc(N4CC(S(=O)(=O)C5CC5)C4)n3)cn2)cc1)c1cc(Cl)c(OCCCl)c(C#N)c1 [Compound 387] | 0.05 | > 10 | > 10 | 1.9 | > 10 | > 10 | 0.22 |  |  |  |  |  |  |  |  | 
2 | CC(C)(c1ccc(-c2ccc(OCc3ccc(-c4cnc(P(C)(C)=O)nc4)nc3)cc2)cc1)c1cc(Cl)c(OCCCl)c(C#N)c1 [Compound 276] | 0.51 | > 10 | > 10 | > 10 | > 10 | > 10 | 0.11 | 216 | 13200 | 9 | 4 |  |  |  |  | 
3 | CC(C)(c1ccc(-c2ncc(OCc3ccnc(N4CC(S(C)(=O)=O)C4)n3)cn2)cc1)c1cc(Cl)c(OCCCl)c(C#N)c1 [Compound 379] | 0.12 | > 10 | > 10 | > 10 | > 10 | > 10 | 0.68 |  |  |  |  |  |  |  |  | 
4 | CC(C)(c1ccc(-c2ncc(OCc3cnc(-c4cnc(P(C)(C)=O)nc4)cn3)cn2)cc1)c1cc(Cl)c(OCCCl)c(C#N)c1 [Compound 403] | 0.26 | 1.3 | > 10 | > 10 | > 10 | > 10 |  |  |  |  |  |  |  |  |  | 
5 | CC(C)(c1ccc(-c2cnc(OCc3ccc(-c4ccc(P(C)(C)=O)nn4)cc3)cn2)cc1)c1cc(Cl)c(OCCCl)c(C#N)c1 [Compound 380] | 0.15 | > 10 | > 10 | > 10 | > 10 | > 10 | 0.23 |  |  |  |  |  |  |  |  | 
6 | CC(C)(c1ccc(-c2ccc(OCc3ccnc(N4CCC(S(C)(=O)=O)CC4)n3)cc2)cc1)c1cc(Cl)c(OCCCl)c(C#N)c1 [Compound 94] | 0.79 | > 10 | > 10 | > 10 | > 10 | > 10 | 0.49 |  |  |  |  |  |  |  |  | 
7 | CC(C)(c1ccc(-c2cnc(OCc3ccnc(N4CC5(C4)CS(=N)(=O)C5)n3)cn2)cc1)c1cc(Cl)c(OCCCl)c(C#N)c1 [Compound 391] | 0.091 | > 10 | > 10 | 10 | > 10 | > 10 | 0.46 |  |  |  |  |  |  |  |  | 
8 | CC(C)(c1ccc(-c2ccc(OCc3ccnc(N4CC(S(C)(=O)=O)C4)n3)cn2)cc1)c1cc(Cl)c(OCCCl)c(C#N)c1 [Compound 85] | 0.33 | > 10 | > 10 | 6.5 | > 10 | > 10 | 0.34 | 480 | 43000 | 8.9 | 2 | 3110 | 0.63 | 58.3 | 13.7 | 6.12
9 | CC(C)(c1ccc(-c2ccc(OC3CCN(c4ccnc(P(C)(C)=O)n4)CC3)cc2)cc1)c1cc(Cl)c(OCCCl)c(C#N)c1 [Compound 48] |  | 1.7 | > 10 | 5.4 | > 10 | > 10 | 0.44 | 358 | 13000 | 18 | 4 |  |  |  |  | 
10 | CC(C)(c1ccc(-c2ccc(OCc3ccnc(N4CC5(CCS(=N)(=O)CC5)C4)n3)cc2)cc1)c1cc(Cl)c(OCCCl)c(C#N)c1 [Compound 289] |  | > 10 | > 10 | > 10 | > 10 | > 10 | 0.83 | 240 | 10000 | 10.7 | 4 |  |  |  |  | 
11 | CC(C)(c1ccc(-c2cnc(OCc3ccc(-c4cnc(P(C)(C)=O)cn4)cc3)cn2)cc1)c1cc(Cl)c(OCCCl)c(C#N)c1 [Compound 381] | 0.11 | > 10 | > 10 | 5.8 | > 10 | > 10 | 0.35 |  |  |  |  |  |  |  |  | 
12 | CC(C)(c1ccc(-c2ccc(OCc3ccnc(N4CC(S(C)(=O)=O)C4)n3)nc2)cc1)c1cc(Cl)c(OCCCl)c(C#N)c1 [Compound 207] |  | > 10 | > 10 | > 10 | > 10 | > 10 | 0.34 | 446 | 33900 | 9.8 | 3 | 1620 | 1.1 | 97.7 | 7.61 | 16.1
13 | CC(C)(c1ccc(-c2ccc(OCC34CC(c5cnc(P(C)(C)=O)nc5)(C3)C4)cc2)cc1)c1cc(Cl)c(OCCCl)c(C#N)c1 [Compound 320] | 0.26 | 9.1 | > 10 | > 10 | > 10 | > 10 | 0.079 |  |  |  |  |  |  |  |  | 
14 | CC(C)(c1ccc(-c2ccc(C#Cc3cnc(P(C)(C)=O)nc3)cc2)cc1)c1cc(Cl)c(OCCCl)c(C#N)c1 [Compound 109] | 0.57 | 8.8 | > 10 | > 10 | > 10 | > 10 | 0.12 | 870 | 29200 | 27.1 | 4 | 1580 | 0.56 | 93.6 | 15.5 | 13.8
15 | CC(C)(c1ccc(-c2cnc(OCc3ccnc(N4CC5(CCS5(=O)=O)C4)n3)cn2)cc1)c1cc(Cl)c(OCCCl)c(C#N)c1 [Compound 376] | 0.1 | > 10 | > 10 | > 10 | > 10 | > 10 | 0.27 | 2300 | 131000 | 23 | 4 |  |  |  |  | 
16 | CC(C)(c1ccc(-c2ccc(OCc3ccc(-c4cnc(P(C)(C)=O)nc4)cc3)cc2)cc1)c1cc(Cl)c(OCCCl)c(C#N)c1 [Compound 136] | 0.52 | > 10 | > 10 | > 10 | > 10 | > 10 | 0.23 | 242 | 10100 | 16.6 | 7 | 3730 | 0.49 | 23.5 | 17.1 | 14.6
